The assay concerns the target T1, Myoferlin (MYOF) (Homo sapiens, UniProt Q9NZM1).
T1 construct: C2D domain of MYOF (MYOF-C2D)
T1 sequence (Q9NZM1 1123-1251 limits assumed): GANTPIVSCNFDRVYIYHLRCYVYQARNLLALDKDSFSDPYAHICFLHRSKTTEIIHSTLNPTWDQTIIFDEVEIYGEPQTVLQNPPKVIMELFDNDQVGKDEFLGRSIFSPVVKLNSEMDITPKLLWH
Nature of the assay: SPR (Biacore T200, immobilized MYOF-C2D); confirmed by BLI (KD =[…]). In kind it is binding.

As a reminder, the Kd is the constant that tells how readily two partners part at equilibrium. A low value points to a tighter complex.

In turn, `CCc1nc(-c2ccc(OC)cc2)n(-c2cccc(C(=O)NCCCCc3ccccc3)c2)n1` [YQ456, 3‐(3‐ethyl‐5‐(4‐methoxyphenyl)‐1H‐1,2,4‐triazol‐1‐yl)‐N‐(4‐phenylbutyl)benzamide] had a Kd of 37 nM.

(Values after paper PMC7868085, “A potent and selective small molecule inhibitor of myoferlin attenuates colorectal cancer progression” (Clinical and Translational Medicine, 2021).)
